Source: patent US11466069B2, “Methods of treatment and novel constructs” (AUCKLAND UNISERVICES LIMITED, priority 2017, dated 2022)
“Also recorded” adds a separate entry of the source. Non-standard residues stand in square brackets, D forms with d. Residues, ends and D or L forms follow the SMILES beside them. No end group written: not given here.

Experiments:
gap junctions = experiment: Lucifer Yellow dye scrape/load gap junction assay; assay type: cell-based, human; details: ARPE-19, scrape/load; XG19 5 μM
Method: Peptides were applied onto cells for uptake as previously mentioned. Peptide solutions were removed from the cells and the cells were exposed to 0.1% […]/PBS dye (LY). A vertical and horizontal scrape was created in the cell monolayer using a pipette tip. The cells were then incubated at room temperature for 15 min. The LY dye solution was removed, cells were washed in PBS and fixed in 4% formaldehyde PBS with nuclei counterstained with DAPI. Coverslips were mounted in anti-fade medium (Citifluor™ AF1) and slides were imaged.

Cx43 hemichannel [1] = target: T1, Cx43 hemichannel (Homo sapiens, UniProt P17302); experiment: Hemichannel mediated ATP release assay (low calcium solution); assay type: cell-based; parameters: endogenous in cells; details: for ATP release compared to low calcium, 30 min: ARPE-19, 5 μM XG19, 100 μM Peptide5, 100 μM CBX, 30 min low calcium
Method: Peptides were applied onto cells for uptake studies as previously described. Peptide solutions were removed from the cells, which were then exposed to either low calcium (Ca^2+) solution or HAIR solution to open hemichannels or high calcium solution to close hemichannels for […] at 37° C., 5% CO2.

ARPE-19 cells [2] = experiment: MTT cytotoxicity assay; assay type: cell-based, human; details: ARPE-19 cells, 5, 10 or 20 μM for 1 or 24 h
Method: ARPE-19 cells were exposed to DMEM/F12 (normal medium) or HAIR solution for 1 h. XG19 was mixed in DMEM/F12 or HAIR solution and applied to ARPE-19 cells at 0, 5, 10 or 20 μM concentrations for either 1 or 24 h at 37° C., 5% CO2. After the incubation period, the solutions in each well were removed and replaced with 0.5 mg/mL, MTT (Thermo Fisher Scientific) in PBS and incubated for 4 h at 37° C. and 5% CO2. The MTT/PBS solution was then removed and replaced with HCl-isopropanol solution (0.04 M) to dissolve formed formazan. The intensity of purple colour was quantified by measuring absorbance at 570 nm with correction of interference at 650 nm (BioTek Synergy HT).

Cx43 hemichannel [3] = target: T1, Cx43 hemichannel; experiment: Hemichannel mediated EthD-1 dye uptake assay; assay type: cell-based; parameters: endogenous in cells; details: ARPE-19 cells, 5 μM peptide, low calcium solution
Method: Peptides were applied onto cells for uptake as previously mentioned. Peptide solutions were removed from the cells exposed to 2 μM ethidium homodimer-1 (EthD-1) in either Hanks Buffered Salt Solution (137 mM NaCl, 5.4 mM KCl, 0.25 mM Na2HPO4, 0.1 g glucose, 0.44 mM KH2PO4, 1.0 mM MgSO4, 4.2 mM NaHCO3)+EGTA (5 mM) (low calcium solution) to open hemichannels or high calcium (Ca′) solution (Hanks Buffered Salt Solution+1.3 mM CaCl2)) for […] at 37° C., 5% CO2. The solutions were removed, cells were washed in PBS and fixed in 4% formaldehyde PBS before counterstaining nuclei with DAPI. Coverslips were mounted in anti-fade medium (Citifluor™ AF1) and slides were imaged.

hRMEC cells = experiment: Cellular uptake of FITC labelled peptides into hRMEC cells (confocal microscopy); assay type: cell-based, human
Method: Primary human retinal microvascular endothelial cells (hRMEC; Neuromics) were cultured and maintained in T25 flasks in EGM-2™ BulletKit™ media (Lonza) containing endothelial basal media (EBM-2; Lonza) and EGM-2 SingleQuots™ (Lonza), supplemented with 10% fetal bovine serum and 1% Antibiotic-Antimicotic (Sigma) at 37° C. with 5% CO2. VEGF was excluded from the EGM-2 media.
(§1) Peptides or control channel blockers, carbenoxolone (CBX) (Sigma) or lanthanum chloride (LaCl3; Sigma) were mixed with DMEM/F12 or EGM-2™ BulletKit™ media at appropriate concentrations and applied onto cells for 1 h at 37° C., 5% CO2. For cell uptake under hypoxic conditions, peptides were delivered in hypoxic, acidic ion-shifted Ringers (HAIR) solution (13) for 1 h at 37° C., 5% CO2. For cell uptake under hyperglycaemia and inflammation conditions peptides were delivered in hyperglycaemia and inflammation solution for 24 h at 37° C., 5% CO2. The solutions were removed and cells were washed in PBS and fixed in 4% formaldehyde PBS with nuclei were counterstained with DAPI. Coverslips were mounted in anti-fade medium (Citifluor™ AF1) and cells were visualised by confocal microscopy.

ARPE-19 cells [4] = experiment: Cellular uptake of FITC labelled peptides into ARPE-19 cells in normal medium; assay type: cell-based, human; details: for concentration at which cellular uptake was detected (FITC fluorescence): normal medium, FITC labelled peptide, 1 h, 10-50 μM (Gap19 up to 100 μM)
Method: Cell culture and maintenance Unless otherwise mentioned, all cell culture reagents were purchased from Gibco® or Invitrogen™ (Life Technologies). ARPE-19 cells are from a human retinal pigment epithelium cell line purchased from American Type Culture Collection (ATCC), and were maintained in T25 flasks in DMEM/F12 (DMEM/F-12, GlutaMAX™ medium containing 10% heat inactivated foetal bovine serum (FBS), and 1% Antibiotic-Antimicotic (Sigma)) at 37° C. with 5% CO2.
as §1

[5] = system: hyperglycaemic and inflamed ARPE-19 cells; experiment: Cellular uptake in hyperglycaemic and inflamed ARPE-19 cells; assay type: cell-based, human; details: ARPE-19, FITC labelled peptide, 24 h
Method: The inflammatory cytokines TNFα and Il-1β (PeproTech) were added to achieve a final concentration of 10 ng/ml each. Antibiotic-Antimycotic was added to the solution to achieve a 1% concentration. The solution was made fresh before application to cells.
as §1

hypoxic ARPE-19 cells = experiment: Cellular uptake in hypoxic ARPE-19 cells (HAIR solution); assay type: cell-based, human; details: ARPE-19, FITC labelled peptide, HAIR solution 1 h
Method: as §1

Cx43 hemichannel [6] = target: T1, Cx43 hemichannel; details: ethidium bromide uptake, literature (6); cited from earlier work
gap junction = details: literature (6); cited from earlier work

T1 sequence (P17302 2-382 limits assumed): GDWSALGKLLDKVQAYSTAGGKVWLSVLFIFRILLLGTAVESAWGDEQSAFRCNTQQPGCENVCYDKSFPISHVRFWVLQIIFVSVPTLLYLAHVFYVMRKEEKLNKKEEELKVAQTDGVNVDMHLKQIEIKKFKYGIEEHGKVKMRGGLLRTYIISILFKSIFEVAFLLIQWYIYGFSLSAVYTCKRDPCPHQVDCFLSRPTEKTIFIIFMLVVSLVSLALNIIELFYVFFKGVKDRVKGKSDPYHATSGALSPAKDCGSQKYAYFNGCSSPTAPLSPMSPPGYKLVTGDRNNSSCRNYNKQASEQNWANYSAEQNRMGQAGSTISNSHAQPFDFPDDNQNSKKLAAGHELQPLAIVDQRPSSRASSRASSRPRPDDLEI

CC1(C)[C@@H](OC(=O)CCC(=O)O)CC[C@]2(C)[C@H]3C(=O)C=C4[C@@H]5C[C@@](C)(C(=O)O)CC[C@]5(C)CC[C@@]4(C)[C@]3(C)CC[C@@H]12 [CBX, carbenoxolone]
gap junction function (Lucifer Yellow dye spread to neighbouring cells) (gap junctions): the dye was not further transported to any neighbouring cells; also recorded: inhibited gap junction communication | ATP release compared to low calcium, 30 min (Cx43 hemichannel [1]): reduced ATP release

CC[C@H](C)[C@H](NC(=O)[C@H](CCC(=O)O)NC(=O)[C@@H](NC(=O)[C@H](CCC(N)=O)NC(=O)[C@H](CCCCN)NC(=O)CNC(=O)CNC(=O)[C@H](NC(=O)[C@H]1CCCN1C(=O)[C@@H](CCCNC(=N)N)NC(=O)[C@@H](CC(C)C)NC(=O)[C@@H](CS)NC(=O)[C@H](N)CC(C)C)C(C)C)[C@@H](C)CC)C(=O)N[C@@H](CCCCN)C(=O)N[C@@H](CCCCN)C(=O)N[C@@H](Cc1ccccc1)C(=O)N[C@@H](CCCCN)C(=O)O [XG19] (H-[dL][dC][dL][dR][dP][dV]GGKQIEIKKFK-OH)
cell viability (MTT) compared to untreated cells (ARPE-19 cells [2]): no significant difference in cell viability

FITC-XG19: FITC labelled XG19 used in the cellular uptake experiments ([dL][dC][dL][dR][dP][dV]GGKQIEIKKFK; also: FITC label, site not given here)
EthD-1 dye uptake (mean fluorescence intensity) compared to low calcium treatment (Cx43 hemichannel [3]): significant reduction of the mean fluorescence intensity; also recorded: reduced EthD-1 uptake

KQIEIKKFK (listed as Homo sapiens) [Gap19]
cellular uptake (FITC fluorescence) at 100 μM (hRMEC cells; 100 μM, still lower than 10 μM XG19): Some uptake was observed | concentration at which cellular uptake was detected (FITC fluorescence) (hRMEC cells; FITC labelled peptide, 1 h, XG19 10, 20, 50 μM, Gap19 10, 20, 50, 100 μM): > 50 µM | concentration at which cellular uptake was detected (FITC fluorescence) (ARPE-19 cells [4]; ARPE-19 cells): > 100 µM | cellular uptake in hyperglycaemia and inflammation solution vs normal media [5]: undetectable in either condition; also recorded: no change in uptake | cellular uptake in hypoxic solution vs normal media (hypoxic ARPE-19 cells): undetectable in either condition; also recorded: no change in uptake | concentration at which efficacy improved (Cx43 hemichannel [6]): 344 to 688 µM | concentration with no effect on Cx43 hemichannel inhibition (Cx43 hemichannel [6]): > 172 µM | gap junction function post uptake (gap junction): maintain gap junction function

VDCFLSRPTEKT [PepS]
ATP release relative to CBX treated group (Cx43 hemichannel [1]; ARPE-19, low calcium solution): greater than CBX | ATP release compared to low calcium, 30 min (Cx43 hemichannel [1]): reduced ATP release

YGRKKRRQRRRKQIEIKKFK [TAT-Gap19, fusion peptide of TAT peptide and Gap19]
concentration at which cells were saturated with peptide (ARPE-19 cells [4]; ARPE-19 cells): 20 µM | cellular uptake (FITC fluorescence), dependence on concentration (ARPE-19 cells [4]; ARPE-19 cells, 10, 20, 50 μM): dose dependant manner | overall cellular uptake compared to XG19 (ARPE-19 cells [4]; ARPE-19 cells, 10, 20, 50 μM): higher cell uptake than XG19 | overall cellular uptake compared to XG19 (ARPE-19 cells [4]; ARPE-19 cells, 10, 20, 50 μM, listed as TAT-GAP19): much greater than for XG19 at all the tested concentrations | subcellular localisation of peptide after uptake (ARPE-19 cells [4]; ARPE-19 cells, FITC vs DAPI): mainly accumulated into the nucleus | concentration at which cellular uptake was detected (FITC fluorescence) (ARPE-19 cells [4]; ARPE-19 cells): ≤ 10 µM
